{"source": "paper PMC13129536", "about": "(The Journal of Biological Chemistry, 2026)", "test_system": "Mtb (mc^26030)", "format": "cell-based, Mycobacterium tuberculosis", "details": "combined with meropenem"}
{"smiles": "c1ccc(-c2nc3cc(Cc4ccc5[nH]c(-c6ccccn6)nc5c4)ccc3[nH]2)nc1", "note": "[Compound F0850-5995]", "values": [{"measurement": "FICA (apparent FIC)", "result": "greater than 5.0"}]}
{"smiles": "Cc1ccc(C)c(Nc2nc(NCc3ccccc3)c3ccccc3n2)c1", "note": "[Compound F0909-0124]", "values": [{"measurement": "FICA (apparent FIC)", "result": "greater than 5.0"}]}
